Results: PubChem BioAssay AID1963978 (Molecular Pharmacology Branch, DTP, NCI, 2024)

System: 616215-338-R-J1-PDC spheroids with HUVEC/MSC, viability
Test: Anticancer human tumor 616215-338-R-J1-PDC patient-derived colon adenocarcinoma cell line growth inhibition [PI3K]
Conditions: for IC50: curve of first compound; for viability, T/C: stronger effect = lower value
Method in brief: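 Tumor cells grown as multi-cell spheroids with HUVEC endothelial cells and MSC fibroblast-like stroma were treated with targeted agents combined with inavolisib, alpelisib, duvelisib or copanlisib. Doses fell in half-log steps from near clinical Cmax, else from 10 microM. Viability was measured.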

[1] = second compound 0.00316 µM, first compound 0.0316 µM
[2] = second compound 0.00316 µM, first compound 0.1 µM
[3] = second compound 0.00316 µM, first compound 0.316 µM
[4] = second compound 0.00316 µM, first compound 1 µM
[5] = second compound 0.00316 µM, first compound 3.16 µM
[6] = second compound 0.00316 µM, first compound 10 µM
[7] = second compound 0.01 µM, first compound 0.0316 µM
[8] = second compound 0.01 µM, first compound 0.1 µM
[9] = second compound 0.01 µM, first compound 0.316 µM
[10] = second compound 0.01 µM, first compound 1 µM
[11] = second compound 0.01 µM, first compound 3.16 µM
[12] = second compound 0.01 µM, first compound 10 µM
[13] = second compound 0.0316 µM, first compound 0.0316 µM
[14] = second compound 0.0316 µM, first compound 0.1 µM
[15] = second compound 0.0316 µM, first compound 0.316 µM
[16] = second compound 0.0316 µM, first compound 1 µM
[17] = second compound 0.0316 µM, first compound 3.16 µM
[18] = second compound 0.0316 µM, first compound 10 µM
[19] = second compound 0.1 µM, first compound 0.0316 µM
[20] = second compound 0.1 µM, first compound 0.1 µM
[21] = second compound 0.1 µM, first compound 0.316 µM
[22] = second compound 0.1 µM, first compound 1 µM
[23] = second compound 0.1 µM, first compound 3.16 µM
[24] = second compound 0.1 µM, first compound 10 µM
[25] = second compound 0.316 µM, first compound 0.0316 µM
[26] = second compound 0.316 µM, first compound 0.1 µM
[27] = second compound 0.316 µM, first compound 0.316 µM
[28] = second compound 0.316 µM, first compound 1 µM
[29] = second compound 0.316 µM, first compound 3.16 µM
[30] = second compound 0.316 µM, first compound 10 µM
[31] = second compound 1 µM, first compound 0.0316 µM
[32] = second compound 1 µM, first compound 0.1 µM
[33] = second compound 1 µM, first compound 0.316 µM
[34] = second compound 1 µM, first compound 1 µM
[35] = second compound 1 µM, first compound 3.16 µM
[36] = second compound 1 µM, first compound 10 µM
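Also: spheroids exposed to agents for seven days before the viability read.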

How did the IC50 (second compound 0.00316 µM) turn out when CCCS(=O)(=O)Nc1ccc(F)c(C(=O)c2c[nH]c3ncc(-c4ccc(Cl)cc4)cc23)c1F + COc1c(OCCCN2CCOCC2)ccc2c3n(c(=NC(=O)c4cnc(N)nc4)nc12)CCN3 was run?
Its IC50 is 4.83 µM.

And the IC50 (second compound 0.01 µM)?
Its IC50 is 5.11 µM.

What about the IC50 (second compound 0.0316 µM) of the same compound?
Its IC50 is 4.93 µM.

And the IC50 (second compound 0.1 µM)?
The IC50 was 2.86 µM.

What about the IC50 (second compound 0.316 µM) of the same compound?
The IC50 was < 0.0316 µM.

What about the IC50 (second compound 1 µM) of the same compound?
The IC50 was < 0.0316 µM.

And the viability, T/C [1]?
Its viability, T/C is 91.8%.

What about the viability, T/C [2] of the same compound?
Its viability, T/C is 96.1%.

And the viability, T/C [3]?
The viability, T/C was 99%.

What about the viability, T/C [4] of the same compound?
Its viability, T/C is 97.9%.

And the viability, T/C [5]?
The viability, T/C was 77.9%.

And the viability, T/C [6]?
Its viability, T/C is 2.29%.

What about the viability, T/C [7] of the same compound?
The viability, T/C was 105%.

What about the viability, T/C [8] of the same compound?
The viability, T/C was 104%.

What about the viability, T/C [9] of the same compound?
The viability, T/C was 98.3%.

What about the viability, T/C [10] of the same compound?
Its viability, T/C is 94.7%.

What about the viability, T/C [11] of the same compound?
Its viability, T/C is 84.9%.

And the viability, T/C [12]?
Its viability, T/C is 3.47%.

And the viability, T/C [13]?
Its viability, T/C is 105%.

What about the viability, T/C [14] of the same compound?
The viability, T/C was 107%.

And the viability, T/C [15]?
The viability, T/C was 120%.

And the viability, T/C [16]?
Its viability, T/C is 106%.

And the viability, T/C [17]?
The viability, T/C was 77%.

What about the viability, T/C [18] of the same compound?
Its viability, T/C is 7.26%.

What about the viability, T/C [19] of the same compound?
The viability, T/C was 99%.

What about the viability, T/C [20] of the same compound?
Its viability, T/C is 92.8%.

And the viability, T/C [21]?
The viability, T/C was 87.3%.

What about the viability, T/C [22] of the same compound?
The viability, T/C was 93.7%.

What about the viability, T/C [23] of the same compound?
The viability, T/C was 45.9%.

And the viability, T/C [24]?
The viability, T/C was 9.33%.

What about the viability, T/C [25] of the same compound?
Its viability, T/C is 53.8%.

And the viability, T/C [26]?
The viability, T/C was 35.7%.

What about the viability, T/C [27] of the same compound?
The viability, T/C was 38.9%.

And the viability, T/C [28]?
Its viability, T/C is 38.5%.

What about the viability, T/C [29] of the same compound?
The viability, T/C was 27%.

And the viability, T/C [30]?
The viability, T/C was 5.18%.

What about the viability, T/C [31] of the same compound?
Its viability, T/C is 23.3%.

And the viability, T/C [32]?
Its viability, T/C is 29.3%.

What about the viability, T/C [33] of the same compound?
Its viability, T/C is 21.3%.

And the viability, T/C [34]?
Its viability, T/C is 20.1%.

And the viability, T/C [35]?
Its viability, T/C is 18.7%.

What about the viability, T/C [36] of the same compound?
The viability, T/C was 3.73%.

What does the source list for C[C@@H](NC(=O)c1ncnc(N)c1Cl)c1ncc(C(=O)Nc2cc(C(F)(F)F)c(Cl)cn2)s1 + COc1c(OCCCN2CCOCC2)ccc2c3n(c(=NC(=O)c4cnc(N)nc4)nc12)CCN3?
IC50 (second compound 0.00316 µM): > 10 µM; IC50 (second compound 0.01 µM): > 10 µM; IC50 (second compound 0.0316 µM): > 10 µM; IC50 (second compound 0.1 µM): 6.86 µM; IC50 (second compound 0.316 µM): 0.072 µM; IC50 (second compound 1 µM): < 0.0316 µM; viability, T/C [1]: 94.6%; viability, T/C [2]: 117%; viability, T/C [3]: 117%; viability, T/C [4]: 109%; viability, T/C [5]: 104%; viability, T/C [6]: 80.2%; viability, T/C [7]: 96.3%; viability, T/C [8]: 102%; viability, T/C [9]: 116%; viability, T/C [10]: 115%; viability, T/C [11]: 112%; viability, T/C [12]: 89.3%; viability, T/C [13]: 97.9%; viability, T/C [14]: 106%; viability, T/C [15]: 106%; viability, T/C [16]: 113%; viability, T/C [17]: 91.2%; viability, T/C [18]: 53.3%; viability, T/C [19]: 114%; viability, T/C [20]: 103%; viability, T/C [21]: 97.6%; viability, T/C [22]: 97.2%; viability, T/C [23]: 74.7%; viability, T/C [24]: 37.7%; viability, T/C [25]: 54%; viability, T/C [26]: 48.4%; viability, T/C [27]: 40.2%; viability, T/C [28]: 32.2%; viability, T/C [29]: 28.4%; viability, T/C [30]: 8.73%; viability, T/C [31]: 24.4%; viability, T/C [32]: 19.7%; viability, T/C [33]: 16.2%; viability, T/C [34]: 11.3%; viability, T/C [35]: 6.09%; viability, T/C [36]: 1.64%

For Cn1ncnc1[C@H]1c2n[nH]c(=O)c3cc(F)cc(c23)N[C@@H]1c1ccc(F)cc1 + COc1c(OCCCN2CCOCC2)ccc2c3n(c(=NC(=O)c4cnc(N)nc4)nc12)CCN3, which IC50 (second compound 0.00316 µM) is on record?
Its IC50 is > 0.1 µM.

And the IC50 (second compound 0.01 µM)?
Its IC50 is > 0.1 µM.

What about the IC50 (second compound 0.0316 µM) of the same compound?
Its IC50 is > 0.1 µM.

And the IC50 (second compound 0.1 µM)?
Its IC50 is > 0.1 µM.

And the IC50 (second compound 0.316 µM)?
The IC50 was < 0.000316 µM.

And the IC50 (second compound 1 µM)?
The IC50 was < 0.000316 µM.

And the viability, T/C (second compound 0.00316 µM, first compound 0.000316 µM)?
Its viability, T/C is 99.2%.

What about the viability, T/C (second compound 0.00316 µM, first compound 0.001 µM) of the same compound?
Its viability, T/C is 101%.

And the viability, T/C (second compound 0.00316 µM, first compound 0.00316 µM)?
The viability, T/C was 107%.

And the viability, T/C (second compound 0.00316 µM, first compound 0.01 µM)?
The viability, T/C was 95.2%.

And the viability, T/C [1]?
The viability, T/C was 92.5%.

And the viability, T/C [2]?
The viability, T/C was 94.1%.

What about the viability, T/C (second compound 0.01 µM, first compound 0.000316 µM) of the same compound?
Its viability, T/C is 93.8%.

And the viability, T/C (second compound 0.01 µM, first compound 0.001 µM)?
Its viability, T/C is 95.7%.

And the viability, T/C (second compound 0.01 µM, first compound 0.00316 µM)?
Its viability, T/C is 97.9%.

And the viability, T/C (second compound 0.01 µM, first compound 0.01 µM)?
Its viability, T/C is 97.7%.

What about the viability, T/C [7] of the same compound?
The viability, T/C was 96.9%.

What about the viability, T/C [8] of the same compound?
The viability, T/C was 102%.

And the viability, T/C (second compound 0.0316 µM, first compound 0.000316 µM)?
The viability, T/C was 96.9%.

What about the viability, T/C (second compound 0.0316 µM, first compound 0.001 µM) of the same compound?
Its viability, T/C is 99.3%.

And the viability, T/C (second compound 0.0316 µM, first compound 0.00316 µM)?
The viability, T/C was 113%.

And the viability, T/C (second compound 0.0316 µM, first compound 0.01 µM)?
Its viability, T/C is 98%.

What about the viability, T/C [13] of the same compound?
The viability, T/C was 97%.

And the viability, T/C [14]?
Its viability, T/C is 95.7%.

And the viability, T/C (second compound 0.1 µM, first compound 0.000316 µM)?
Its viability, T/C is 111%.

What about the viability, T/C (second compound 0.1 µM, first compound 0.001 µM) of the same compound?
Its viability, T/C is 93.6%.

What about the viability, T/C (second compound 0.1 µM, first compound 0.00316 µM) of the same compound?
Its viability, T/C is 88.5%.

What about the viability, T/C (second compound 0.1 µM, first compound 0.01 µM) of the same compound?
Its viability, T/C is 81%.

And the viability, T/C [19]?
Its viability, T/C is 89.4%.

What about the viability, T/C [20] of the same compound?
Its viability, T/C is 63.7%.

What about the viability, T/C (second compound 0.316 µM, first compound 0.000316 µM) of the same compound?
Its viability, T/C is 45.1%.

And the viability, T/C (second compound 0.316 µM, first compound 0.001 µM)?
Its viability, T/C is 41%.

And the viability, T/C (second compound 0.316 µM, first compound 0.00316 µM)?
The viability, T/C was 31.9%.

And the viability, T/C (second compound 0.316 µM, first compound 0.01 µM)?
Its viability, T/C is 36.2%.

And the viability, T/C [25]?
The viability, T/C was 37%.

What about the viability, T/C [26] of the same compound?
The viability, T/C was 29.8%.

What about the viability, T/C (second compound 1 µM, first compound 0.000316 µM) of the same compound?
Its viability, T/C is 29.8%.

And the viability, T/C (second compound 1 µM, first compound 0.001 µM)?
The viability, T/C was 24.9%.

What about the viability, T/C (second compound 1 µM, first compound 0.00316 µM) of the same compound?
Its viability, T/C is 23.1%.

And the viability, T/C (second compound 1 µM, first compound 0.01 µM)?
The viability, T/C was 19.5%.

And the viability, T/C [31]?
Its viability, T/C is 19.4%.

What about the viability, T/C [32] of the same compound?
Its viability, T/C is 22.3%.
